# Assay results taken from patent US7524869B2, “Taxanes having a C10 ester substituent” (Florida State University Research Foundation, Inc., priority 2000, dated 2009).
# Tested on: HCT116
# Test: In vitro cytotoxicity measured by the cell colony formation assay
# Type: cell-based
# Settings: HCT116 cells, 72 h drug incubation, colonies counted after 7 days; ID50 = drug concentration producing 50% inhibition of colony formation; read-out: IN VITRO ID 50 (nm) HCT116
row,Structure (SMILES),IC50 [nM]
1,CC(=O)O[C@@]12CO[C@@H]1C[C@H](O)[C@@]1(C)C(=O)[C@H](OC(=O)C3CC3)C3=C(C)[C@@H](OC(=O)[C@H](O)[C@@H](NC(=O)c4ccccc4)c4ccncc4)C[C@@](O)([C@@H](OC(=O)c4ccccc4)C12)C3(C)C (some centres unmarked) [Compound 2855],< 1
2,CC(=O)O[C@@]12CO[C@@H]1C[C@H](O)[C@@]1(C)C(=O)[C@H](OC(=O)C3CC3)C3=C(C)[C@@H](OC(=O)[C@H](O)[C@@H](NC(=O)c4ccccc4)c4ccc([N+](=O)[O-])cc4)C[C@@](O)([C@@H](OC(=O)c4ccccc4)C12)C3(C)C (some centres unmarked) [Compound 2869],< 10
3,CCC(=O)O[C@H]1C(=O)[C@@]2(C)C([C@H](OC(=O)c3ccccc3)[C@]3(O)C[C@H](OC(=O)[C@H](O)[C@@H](NC(=O)c4ccco4)c4cccs4)C(C)=C1C3(C)C)[C@]1(OC(C)=O)CO[C@@H]1C[C@@H]2O (some centres unmarked) [Compound 3053],< 1
4,CC(=O)O[C@@]12CO[C@@H]1C[C@H](O)[C@@]1(C)C(=O)[C@H](OC(=O)C3CC3)C3=C(C)[C@@H](OC(=O)[C@H](O)[C@@H](NC(=O)OC(C)C)c4cccs4)C[C@@](O)([C@@H](OC(=O)c4ccccc4)C12)C3(C)C (some centres unmarked) [Compound 3071],< 1
5,CC(=O)O[C@@]12CO[C@@H]1C[C@H](O)[C@@]1(C)C(=O)[C@H](OC(=O)C3CC3)C3=C(C)[C@@H](OC(=O)[C@H](O)[C@@H](NC(=O)OCC(C)C)c4ccco4)C[C@@](O)([C@@H](OC(=O)c4ccccc4)C12)C3(C)C (some centres unmarked) [Compound 3102],< 1
6,CCCC(=O)O[C@H]1C(=O)[C@@]2(C)C([C@H](OC(=O)c3ccccc3)[C@]3(O)C[C@H](OC(=O)[C@H](O)[C@@H](NC(=O)OCC(C)C)c4ccco4)C(C)=C1C3(C)C)[C@]1(OC(C)=O)CO[C@@H]1C[C@@H]2O (some centres unmarked) [Compound 3110],< 1
7,CC(=O)O[C@@]12CO[C@@H]1C[C@H](O)[C@@]1(C)C(=O)[C@H](OC(=O)C3CC3)C3=C(C)[C@@H](OC(=O)[C@H](O)[C@@H](NC(=O)OCC(C)C)c4cccs4)C[C@@](O)([C@@H](OC(=O)c4ccccc4)C12)C3(C)C (some centres unmarked) [Compound 3129],< 10
8,CCCC(=O)N[C@@H](c1cccs1)[C@@H](O)C(=O)O[C@H]1C[C@@]2(O)[C@@H](OC(=O)c3ccccc3)C3[C@](C)(C(=O)[C@H](OC(=O)C4CC4)C(=C1C)C2(C)C)[C@@H](O)C[C@H]1OC[C@@]31OC(C)=O (some centres unmarked) [Compound 3132],< 1
9,CCCC(=O)N[C@@H](c1cccs1)[C@@H](O)C(=O)O[C@H]1C[C@@]2(O)[C@@H](OC(=O)c3ccccc3)C3[C@](C)(C(=O)[C@H](OC(=O)CCC)C(=C1C)C2(C)C)[C@@H](O)C[C@H]1OC[C@@]31OC(C)=O (some centres unmarked) [Compound 3148],< 1
10,CCC(=O)O[C@H]1C(=O)[C@@]2(C)C([C@H](OC(=O)c3ccccc3)[C@]3(O)C[C@H](OC(=O)[C@H](O)[C@@H](NC(=O)OCC(C)C)c4cccs4)C(C)=C1C3(C)C)[C@]1(OC(C)=O)CO[C@@H]1C[C@@H]2O (some centres unmarked) [Compound 3163],< 1
11,CCCC(=O)O[C@H]1C(=O)[C@@]2(C)C([C@H](OC(=O)c3ccccc3)[C@]3(O)C[C@H](OC(=O)[C@H](O)[C@@H](NC(=O)c4ccccc4)c4ccco4)C(C)=C1C3(C)C)[C@]1(OC(C)=O)CO[C@@H]1C[C@@H]2O (some centres unmarked) [Compound 3204],< 1
12,CCCC(=O)N[C@@H](c1ccco1)[C@@H](O)C(=O)O[C@H]1C[C@@]2(O)[C@@H](OC(=O)c3ccccc3)C3[C@](C)(C(=O)[C@H](OC(=O)CC)C(=C1C)C2(C)C)[C@@H](O)C[C@H]1OC[C@@]31OC(C)=O (some centres unmarked) [Compound 3219],< 1
13,CCCC(=O)N[C@@H](c1ccco1)[C@@H](O)C(=O)O[C@H]1C[C@@]2(O)[C@@H](OC(=O)c3ccccc3)C3[C@](C)(C(=O)[C@H](OC(=O)CCC)C(=C1C)C2(C)C)[C@@H](O)C[C@H]1OC[C@@]31OC(C)=O (some centres unmarked) [Compound 3222],< 1
14,CCCC(=O)O[C@H]1C(=O)[C@@]2(C)C([C@H](OC(=O)c3ccccc3)[C@]3(O)C[C@H](OC(=O)[C@H](O)[C@@H](NC(=O)c4ccccc4)c4cccs4)C(C)=C1C3(C)C)[C@]1(OC(C)=O)CO[C@@H]1C[C@@H]2O (some centres unmarked) [Compound 3258],< 1
